Results taken from ChEMBL document CHEMBL5154737, “Semisynthesis and biological evaluation of (+)-sclerotiorin derivatives as antitumor agents for the treatment of hepatocellular carcinoma” (Eur J Med Chem, 2022).
Calls of active or inactive are those of the source. The calls are words filed in the database; no cut-off is given here.

Assays:
Bel-7402 [1] = assay: Cytotoxicity against human Bel-7402 cells assessed as reduction in cell viability incubated for 72 hrs by MTT assay; assay type: functional, cell-based; conditions: Bel-7402, 72 h
[2] = Cytotoxicity against human HepG2 cells assessed as reduction in cell viability incubated for 72 hrs by MTT assay; assay type: toxicity, cell-based
ECa-109 cell line = assay: Cytotoxicity against human Eca-109 cells assessed as reduction in cell viability incubated for 72 hrs by MTT assay; assay type: functional, cell-based; conditions: ECa-109, 72 h
[3] = AUC (0 to t) in Sprague-Dawley rat at 20 mg/kg, ip measured for 0.03 to 24 hrs by UPLC-MS analysis; assay type: ADME, organism-based; parameters: time lower 0.03 hrs, dose 20 mg/kg, time upper 24 hrs, route ip; conditions: in vivo
[4] = Tmax in Sprague-Dawley rat at 20 mg/kg, ip measured for 0.03 to 24 hrs by UPLC-MS analysis; assay type: ADME, organism-based; conditions: in vivo, time 0.03-24 hrs
[5] = Cmax in Sprague-Dawley rat at 20 mg/kg, ip measured for 0.03 to 24 hrs by UPLC-MS analysis; assay type: ADME, organism-based; parameters: time lower 0.03 hrs, dose 20 mg/kg, time upper 24 hrs, route ip; conditions: in vivo
[6] = Toxicity in ICR mouse assessed as change in white blood cell count at 100 mg/kg, ip qd (reference value: 4.0 10^9/L); assay type: organism-based; conditions: in vivo
[7] = Toxicity in ICR mouse assessed as change in lymphocyte count at 100 mg/kg, ip qd (reference value: 3.0 10^9/L); assay type: organism-based; conditions: in vivo
[8] = Toxicity in ICR mouse assessed as change in neutrophile granulocytes level at 100 mg/kg, ip qd (reference value: 0.9 10^9/L); assay type: organism-based; conditions: in vivo
[9] = Toxicity in ICR mouse assessed as change in neutrophile granulocyte level at 100 mg/kg, ip qd (reference value: 21.6 %); assay type: organism-based; conditions: in vivo
[10] = Toxicity in ICR mouse assessed as change in red blood cell count at 100 mg/kg, ip qd (reference value: 7.05 10^12/L); assay type: organism-based; conditions: in vivo
[11] = Toxicity in ICR mouse assessed as change in red blood cell specific volume at 100 mg/kg, ip qd (reference value: 36.1 %); assay type: organism-based; conditions: in vivo
[12] = Toxicity in ICR mouse assessed as change in platelet count at 100 mg/kg, ip qd (reference value: 742 10^9/L); assay type: organism-based; conditions: in vivo
[13] = Toxicity in ICR mouse assessed as change in mean platelet volume at 100 mg/kg, ip qd (reference value: 5.6 fL); assay type: organism-based; conditions: in vivo
[14] = Toxicity in ICR mouse assessed as change in platelet distribution width at 100 mg/kg, ip qd (reference value: 16.7); assay type: organism-based; conditions: in vivo
Bel-7402 [15] = assay: Cytotoxicity against human Bel-7402 cells assessed as inhibition of cell growth incubated for 72 hrs by MTT assay; assay type: functional, cell-based; conditions: dose 5.0 µM, DDE = dose-dependent effect
Bel-7402 [16] = assay: Induction of apoptosis in human Bel-7402 cells assessed as viable cells at 0.625 uM incubated for 24 hrs by Annexin V and dead cell assay kit (reference value: 91.00%); assay type: functional; conditions: read-out: Activity
Bel-7402 [17] = assay: Induction of apoptosis in human Bel-7402 cells assessed as late apoptotic cells at 1.25 uM incubated for 24 hrs by Annexin V and dead cell assay kit (reference value: 4.45 %); assay type: functional
Bel-7402 [18] = assay: Induction of apoptosis in human Bel-7402 cells assessed as dead cells at 1.25 uM incubated for 24 hrs by Annexin V and dead cell assay kit (reference value: 0.80 %); assay type: functional
Bel-7402 [19] = assay: Induction of apoptosis in human Bel-7402 cells assessed as viable cells at 2.5 uM incubated for 24 hrs by Annexin V and dead cell assay kit (reference value: 91.00%); assay type: functional; conditions: read-out: Activity
Bel-7402 [20] = assay: Induction of apoptosis in human Bel-7402 cells assessed as late apoptotic cells at 2.5 uM incubated for 24 hrs by Annexin V and dead cell assay kit (reference value: 4.45 %); assay type: functional
Bel-7402 [21] = assay: Induction of apoptosis in human Bel-7402 cells assessed as dead cells at 2.5 uM incubated for 24 hrs by Annexin V and dead cell assay kit (reference value: 0.80 %); assay type: functional
Bel-7402 [22] = assay: Induction of apoptosis in human Bel-7402 cells assessed as early apoptotic cells at 5 uM incubated for 24 hrs by Annexin V and dead cell assay kit (reference value: 3.75 %); assay type: functional
Bel-7402 [23] = assay: Induction of apoptosis in human Bel-7402 cells assessed as late apoptotic cells at 5 uM incubated for 24 hrs by Annexin V and dead cell assay kit (reference value: 4.45 %); assay type: functional
Bel-7402 [24] = assay: Induction of apoptosis in human Bel-7402 cells assessed as increase in cleaved caspase-9 upto 2.5 uM incubated for 24 hrs by Western blot analysis; assay type: functional, cell-based
Bel-7402 [25] = assay: Disruption of mitochondrial membrane potential in human Bel-7402 cells incubated for 24 hrs by Rho-123 staining based flow cytometry analysis; assay type: functional, cell-based; conditions: dose <= 5.0 µM, DDE = dose-dependent effect
Bel-7402 [26] = assay: Antitumor activity against human Bel-7402 cells xenografted in BALB/c nude mouse assessed as tumor growth inhibition at 20 mg/kg, ip bid for 14 days measured every 2 days relative to control; assay type: functional; conditions: Bel-7402, 336 h, time 14 day, read-out: TGI
[27] = Toxicity in BALB/c nude mouse xenografted with Bel-7402 cells assessed as change in body weight at 20 mg/kg, ip qd measured every 2 days for 14 days; assay type: organism-based; conditions: in vivo, 336 h, time 14 day
[28] = Chronic toxicity in ICR mouse assessed as effect on heart morphology at 100 mg/kg, ip qd measured after 26 days by H and E staining method; assay type: organism-based; conditions: in vivo, 624 h, time 26 day
[29] = Chronic toxicity in ICR mouse assessed as effect on liver morphology at 100 mg/kg, ip qd measured after 26 days by H and E staining method; assay type: organism-based; conditions: in vivo, 624 h, time 26 day
[30] = Chronic toxicity in ICR mouse assessed as effect on lung morphology at 100 mg/kg, ip qd measured after 26 days by H and E staining method; assay type: organism-based; conditions: in vivo, 624 h, time 26 day
[31] = Biodistribution in whole body of mouse bearing tumor measured after 1 hr by ICG dye based fluorescence imaging; assay type: ADME, organism-based; conditions: in vivo
[32] = Biodistribution in tumor of mouse bearing tumor measured after 4 hr by ICG dye based fluorescence imaging; assay type: ADME, organism-based, Neoplasm; conditions: in vivo
[33] = Sub-chronic toxicity in ICR mouse assessed as body weight change at 100 mg/kg/day, ip for 26 days; assay type: organism-based; conditions: in vivo, 624 h, time 26 day
[34] = Sub-chronic toxicity in ICR mouse assessed as change in amount of food intake at 100 mg/kg/day, ip for 26 days; assay type: organism-based; conditions: in vivo, 624 h, time 26 day
HeLa = assay: Cytotoxicity against human HeLa cells assessed as reduction in cell viability incubated for 72 hrs by MTT assay; assay type: functional, cell-based
Bel-7402 [35] = assay: Induction of apoptosis in human Bel-7402 cells assessed as viable cells at 2.5 uM incubated for 24 hrs by Annexin V and Dead cell kit assay (reference value: 90.82 %); assay type: functional; conditions: read-out: Activity
Bel-7402 [36] = assay: Induction of apoptosis in human Bel-7402 cells assessed as early apoptotic cells at 2.5 uM incubated for 24 hrs by Annexin V and Dead cell kit assay (reference value: 3.7 %); assay type: functional
Bel-7402 [37] = assay: Induction of apoptosis in human Bel-7402 cells assessed as necrotic cells at 2.5 uM incubated for 24 hrs by Annexin V and Dead cell kit assay (reference value: 1.6 %); assay type: functional

CC[C@H](C)/C=C(C)/C=C/C1=CC2=C(Cl)C(=O)[C@](C)(O)C(=O)C2=CN1Cc1ccc(OC(F)(F)F)cc1
IC50 (Bel-7402 [1]): 1150 nM
IC50 at 72 h [2]: 2820 nM
IC50 (ECa-109 cell line): 1160 nM
AUC(0-t) [3]: 29700 ng·h/mL
Tmax [4]: 45 min
Cmax [5]: 5590 ng/mL
Activity [6]: 3.4 10^9/L
Activity [7]: 1.7 10^9/L
Activity [8]: 1.4 10^9/L
Activity [9]: 41.6%
Activity [10]: 8.37 10^12/L
Activity [11]: 46%
Activity [12]: 608 10^9/L
Activity [13]: 6.7 fL
Activity [14]: 18.3
Activity (Bel-7402 [15]): Dde
viability at 0.625 µM (Bel-7402 [16]): 91.6%
Activity (Bel-7402 [17]): 5.75%
Activity (Bel-7402 [18]): 0.75%
viability at 2.5 µM (Bel-7402 [19]): 44.9%
Activity (Bel-7402 [20]): 35.25%
Activity (Bel-7402 [21]): 3.35%
Activity (Bel-7402 [22]): 8.1%
Activity (Bel-7402 [23]): 75.55%
Activity (Bel-7402 [24]): Active
Activity (Bel-7402 [25]): Dde
inhibition in vivo at 20 mg/kg (Bel-7402 [26]): 52.5%
Activity [27]: Non-Toxic
Activity [28]: Non-Toxic
Activity [29]: Non-Toxic
Activity [30]: Non-Toxic
Activity [31]: Active
Activity [32]: Active
Activity [33]: Non-Toxic
Activity [34]: Non-Toxic
IC50 (HeLa): 2780 nM
viability at 2.5 µM (Bel-7402 [35]): 25.1%
Activity (Bel-7402 [36]): 25.8%
Activity (Bel-7402 [37]): 11.15%
